Experimental data published in US8580854B2, “Methods of suppression of rage gene expression and rage triggered inflammatory genes by selected age-inhibitors” (City of Hope, priority 2005, dated 2013).

What was measured:
[1] = tested on: rats fed a diet rich in cholesterol; details: cited from earlier work
hemoglobin = hemoglobin (Homo sapiens, UniProt P68871+P69905); details: synergistic with 2,3-bisphosphoglycerate; cited from earlier work
STZ-diabetic rats [2] = test: Body weight, glycemic control and albuminuria in STZ-induced diabetic rats given LR-90 in drinking water for 32 weeks; format: in vivo, rat
Experimental: (§1) Animal studies were carried out in compliance with policies outlined in “The Guide for the care and Handling of Laboratory Animals” (NIH Publication No. 85-23), which have been approved by the City of Hope National Medical Center Animal Care Committee. Induction of diabetes by STZ and all other procedures were according to the previously published article on LR-90 (25), except that in the present study the diabetic rats under treatment were randomized in 5 groups of ten each: one diabetic control group (0 mg/L), one group receiving 2.5 mg/L, one group receiving 10 mg/L, a third group receiving 20 mg/L and a fourth group receiving 50 mg/L of LR-90 in drinking water (FIG. 1). Both plasma glucose and body weight were checked before administration of the drug, and no differences were detected among the two non-diabetic groups and five diabetic treatment groups. All animals were housed individually and were given free access to food (Purina rodent chow 5001, Ralston Purina, Richmond, Ind., USA) and water. Glycemic control and body weights were monitored periodically. In order to limit hyperglycemia and ensure that animals maintained body weight, diabetic animals received 3 IU of ultralente insulin (Humulin U, Eli Lilly, Indianapolis, Ind., USA) two to three times per week. The study was carried out over 32 weeks.
(§2) Blood (from the tail vein) and urine samples were collected from rats for glycemic control analysis and albuminuria measurements. Plasma glucose was measured using a glucose analyzer machine (YSI 2300 STAT, Yellowsprings, Ohio, USA). HbAlc concentration was measured by HPLC (BioRad DIAMAT, Hercules, Calif., USA). Total plasma triglycerides and cholesterol concentrations were quantified at the end of the study using the Vitros 250 Chemistry System (Johnson & Johnson, Rochester, N.Y., USA). Progression of renal dysfunction was assessed by measuring urinary albumin-to-creatinine ratio (ACR). Rats were housed in metabolic cages (Nalge, Rochester, N.Y., USA) for 24 hr and urine was collected in a collection beaker with several drops of toluene to inhibit microbial growth. Urinary albumin and creatinine concentrations were quantified immunologically using the Nephrat/Creatinine Companion kits (Exocell), and the ACR value was calculated for each rat.
(§3) At the end of study, the rats were weighed and anaesthetized with isofluorane and blood was drawn by heart puncture and transferred into heparinized and non-heparinized vacutainer tubes on ice. These blood samples were later centifuged for plasma and serum collection respectively, and stored at −70° C. until the time of analysis. Rats were killed by over-anesthetization and cardiac puncture and the kidneys were removed immediately, weighed, decapsulated and rinsed in PBS buffer. Sections of the kidneys were stored in 10% NBF for subsequent microscopic examinations and immunohistochemistry.
(§4) Statistical analyses were performed using Prism software (GraphPad, San Diego, Calif., USA). Unless otherwise indicated, data are presented as Means±Std. Group comparisons were analyzed using one-way ANOVA and subsequent post-hoc analysis by Tukey's test. A P value of less than 0.05 was considered statistically significant.

MCP-1 [3] = test: S100b-induced MCP-1 mRNA expression on THP-1 monocytes (RT-PCR); format: cell-based, human; details: THP-1, pre-treated 1 hr with 25-200 ug/ml, S100b 4 hr; statistically significant at 100 and 200 ug/ml
Experimental: (§5) Human THP-1 monocytic cells were obtained from the American Type Culture Collection and cultured as described (27) in RPMI 1640 medium supplemented with 10% fetal calf serum (FCS), glutamine, HEPES, streptomycin/penicillin ([…]/100 units/ml), 50 uM-mercaptoethanol, and 5.5 mM D-glucose in a 5% CO2 incubator at 37° C. THP-1 cells (5×10^5 cells/ml) in 4 ml of medium were pre-treated with various concentrations of LR-90 (0, 25, 50, 100 and 200 ug/ml; prepared in 20 mM stock solution in DMSO) for 1 hr. Control cells received DMSO vehicle only. Thereafter, S100b ([…]) was added and cells re-incubated for 4 hr. The cell suspension was then centrifuged at 200 g, the supernatant was removed and the cell pellet was frozen at −70° C. for subsequent RNA extraction.
(§6) RNA Extraction and Relative RT-PCR-Total RNA was isolated by the RNA-STAT-60 reagent method (Teltest, Friendswood, Tex.), and […] was used for the RT reaction using a Gene Amp RNA PCR kit. […] PCR products were fractionated on 2.5% agarose gels, photographed using Alpha Imager 2000, and analyzed with Quantity 1 software (Bio-Rad Laboratories, Hercules, Calif.). Results were expressed as fold stimulation over control after normalizing with paired 18S RNA gene.
(§7) Data Analyses. […] Group comparisons were analyzed using one-way ANOVA and subsequent post-hoc analysis by Tukey's test. […]

STZ-diabetic rats [4] = test: Body weight, glycemic control and albuminuria in STZ-induced diabetic rats given LR-90 in drinking water for 32 weeks; format: in vivo, rat; remark: listed apart in the source
non-diabetic rats = test: Non-diabetic control rats given LR-90 in drinking water for 32 weeks; format: in vivo, rat
Experimental: as §1, §2
At the end of study, the rats were weighed and anaesthetized with isofluorane and blood was drawn by heart puncture and transferred into heparinized and non-heparinized vacutainer tubes on ice. These blood samples were later centifuged for plasma and serum collection respectively, and stored at −70° C. until the time of analysis. […]
Statistical analyses were performed using Prism software (GraphPad, San Diego, Calif., USA). […] Group comparisons were analyzed using one-way ANOVA and subsequent post-hoc analysis by Tukey's test. […]

RAGE [5] = test: Immunohistochemical staining of renal RAGE protein expression; format: in vivo, rat; details: diabetic rats, increasing concentrations; 25 and 50 mg/L best inhibitory effects
Excerpt: (§8) Formalin-fixed […] embedded kidney sections ([…]) were mounted on slides and stained with 6D12 monoclonal anti-CML-AGE, polyclonal rabbit anti-RAGE and polyclonal goat anti-nitrotyrosine antibodies as described before (25). […] Similarly, RAGE protein expression in the glomeruli was visibly higher in diabetic rats compared with non-diabetic animals (FIG. 5).

CML-AGE = test: Immunohistochemical staining of renal CML-AGE accumulation; format: in vivo, rat; details: diabetic rats, increasing concentrations; 25 and 50 mg/L best inhibitory effects
Excerpt: as §8

RAGE [6] = test: S100b-induced RAGE mRNA expression on THP-1 monocytes (RT-PCR); format: cell-based, human; details: THP-1, pre-treated 1 hr with 25-200 ug/ml, S100b 4 hr; statistically significant at 100 and 200 ug/ml
Experimental: as §5, §6, §7

[7] = tested on: NADPH oxidase (gp91^phox subunit); test: S100b-induced NADPH oxidase mRNA expression on THP-1 monocytes (RT-PCR); format: cell-based, human; details: THP-1, pre-treated 1 hr with 25-200 ug/ml, S100b 4 hr; statistically significant at 100 and 200 ug/ml
Experimental: as §5, §6, §7

THP-1 cells = test: Cell viability test on THP-1 cells (cell counter, Trypan Blue); format: cell-based, human
Experimental: Cell Viability Test—THP-1 cells were seeded onto 6-well plates at a concentration of ˜5×10^5/ml in RPMI medium containing 10% FCS as above, and then incubated with various concentrations of LR-90 or control medium alone for 24 hr at 37° C., 5% CO2. After incubation, overall cell counts were measured using a cell counter (Coulter Z1 Cell and Particle Counter, Beckman Coulter Inc., Fullerton, Calif.), and the number of viable cells determined by hemocytometer counts of Trypan Blue—impermeable cells.

STZ-diabetic rats [8] = test: Total plasma triglycerides and cholesterol in STZ-diabetic rats; format: in vivo, rat
Experimental: Animal studies were carried out in compliance with policies outlined in “The Guide for the care and Handling of Laboratory Animals” (NIH Publication No. 85-23), which have been approved by the City of Hope National Medical Center Animal Care Committee. Induction of diabetes by STZ and all other procedures were according to the previously published article on LR-90 (25), except that in the present study the diabetic rats under treatment were randomized in 5 groups of ten each: one diabetic control group (0 mg/L), […] (FIG. 1). Both plasma glucose and body weight were checked before administration of the drug, and no differences were detected among the two non-diabetic groups and five diabetic treatment groups. All animals were housed individually and were given free access to food (Purina rodent chow 5001, Ralston Purina, Richmond, Ind., USA) and water. Glycemic control and body weights were monitored periodically. In order to limit hyperglycemia and ensure that animals maintained body weight, diabetic animals received 3 IU of ultralente insulin (Humulin U, Eli Lilly, Indianapolis, Ind., USA) two to three times per week. The study was carried out over 32 weeks.
as §2

MCP-1 [9] = test: Secreted MCP-1 levels of THP-1 cells by ELISA; format: cell-based, human; details: THP-1 supernatants
Experimental: Measurement of MCP-1 levels by ELISA. Supernatants of THP-1 cells (5×10^5 cells/ml) cultured in RPMI 1640 medium containing 2% FBS for 18 hrs under control or LR-90 treated conditions were used to assay secreted MCP-1 levels using the Quantikine ELISA kit. Medium alone without cells was incubated under the same conditions and used as blank control for the ELISA.
as §4, with “Data Analyses. Statistical” for “Statistical”

kidneys of diabetic rats = test: Kidney histology (PAS and Trichrome staining) in STZ-diabetic rats; format: in vivo, rat
Experimental: as §3

COX-2 = test: S100b-induced COX-2 mRNA expression on THP-1 monocytes (RT-PCR); format: cell-based, human; details: THP-1, pre-treated 1 hr with 25-200 ug/ml, S100b 4 hr; statistically significant at 100 and 200 ug/ml
Experimental: as §5, §6, §7

[10] = 2.5 mg per liter drinking water daily
[11] = 10 mg per liter drinking water daily
[12] = 50 mg per liter drinking water daily
[13] = 25 mg per liter drinking water daily
[14] = non-diabetic rats, 50 mg per liter drinking water daily
[15] = streptozotocin-induced diabetic rats, summary statement
[16] = marked difference at 25 and 50 mg/L

Sequence of hemoglobin (P69905 2-142 limits assumed): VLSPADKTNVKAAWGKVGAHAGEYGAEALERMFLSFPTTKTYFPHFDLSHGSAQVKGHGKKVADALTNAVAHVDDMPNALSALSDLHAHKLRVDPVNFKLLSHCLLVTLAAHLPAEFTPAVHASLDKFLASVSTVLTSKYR
Sequence of hemoglobin (P68871 2-147 limits assumed): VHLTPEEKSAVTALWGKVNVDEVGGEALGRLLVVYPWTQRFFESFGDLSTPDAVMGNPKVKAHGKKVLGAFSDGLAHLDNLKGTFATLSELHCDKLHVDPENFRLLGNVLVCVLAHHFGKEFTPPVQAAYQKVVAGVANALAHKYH

N-4-(nitrophthalimido)phenoxyisobutyric acid [LR-16]
low-density lipoproteins (LDL) [1]: lower
serum cholesterol [1]: lower
effect on oxygen affinity of hemoglobin molecules (hemoglobin): allosteric effector

CC(C)(Oc1ccc(NC(=O)Nc2ccc(Cc3ccc(NC(=O)Nc4ccc(OC(C)(C)C(=O)O)cc4)c(Cl)c3)cc2Cl)cc1)C(=O)O [LR-90]
ACR (urinary albumin-to-creatinine ratio) (STZ-diabetic rats [2]; [10]): 2.35 ± 1.96 mg/mg
HbA1c (STZ-diabetic rats [2]; [10]): 2.6 ± 0.6 %
Plasma Glucose (STZ-diabetic rats [2]; [10]): 29.9 ± 5.9 mmol/L
ACR (urinary albumin-to-creatinine ratio) (STZ-diabetic rats [2]; [11]): 2.60 ± 1.74 mg/mg
HbA1c (STZ-diabetic rats [2]; [11]): 3.0 ± 0.4 %
Plasma Glucose (STZ-diabetic rats [2]; [11]): 30.8 ± 2.9 mmol/L
HbA1c (STZ-diabetic rats [2]; [12]): 3.0 ± 0.2 %
Plasma Glucose (STZ-diabetic rats [2]; [12]): 31.6 ± 3.9 mmol/L
ACR (urinary albumin-to-creatinine ratio) (STZ-diabetic rats [2]; 50 mg per liter drinking water daily, p < 0.05 vs. diabetic rats): 1.39 ± 1.17 mg/mg
effect on HbAlc concentration (STZ-diabetic rats [2]; various doses): no affect
effect on plasma glucose concentration (STZ-diabetic rats [2]; various doses): no affect
S100b-induced MCP-1 mRNA expression (MCP-1 [3]): profoundly suppressed
HbA1c (STZ-diabetic rats [4]; [13]): 2.9 ± 0.4 %
Plasma Glucose (STZ-diabetic rats [4]; [13]): 26.7 ± 2.4 mmol/L
ACR (urinary albumin-to-creatinine ratio) (STZ-diabetic rats [4]; 25 mg per liter drinking water daily, p < 0.05 vs. diabetic rats): 1.75 ± 1.43 mg/mg
rise in ACR (STZ-diabetic rats [4]; 25 and 50 mg/L doses statistically significant vs. untreated diabetic animals): inhibited the rise in ACR in almost dose-dependent manner
effect on lipid metabolism (non-diabetic rats; non-diabetic animals): no effect
ACR (urinary albumin-to-creatinine ratio) (non-diabetic rats; [14]): 0.42 ± 0.32 mg/mg
HbA1c (non-diabetic rats; [14]): 1.2 ± 0.1%
Plasma Glucose (non-diabetic rats; [14]): 8.9 ± 1.0 mmol/L
RAGE protein expression in the glomeruli (RAGE [5]): visibly reduced
CML-AGE accumulation in kidney glomeruli and cortical tubules (CML-AGE): visibly reduced
S100b-induced RAGE mRNA expression (RAGE [6]): profoundly suppressed
S100b-induced NADPH oxidase mRNA expression [7]: profoundly suppressed
cell viability (Trypan blue staining) (THP-1 cells): viable
cell counts after incubation (THP-1 cells; THP-1, same concentrations as in S100b experiments, 24 hr): normal and statistically similar to the untreated cells
reduction in triglyceride concentration (STZ-diabetic rats [8]; diabetic rats, 25 mg/L): ≥ 60%
reduction in triglyceride concentration (STZ-diabetic rats [8]; diabetic rats, 50 mg/L): ≥ 60%
cholesterol concentration relative to non-diabetic animals (STZ-diabetic rats [8]; diabetic rats, all concentrations tested with the exception of 10 mg/L): nearly normalized
reduction in triglyceride concentration (STZ-diabetic rats [8]; diabetic rats, lowest concentration (25 mg/L) tested): ~50%
reduction of increased concentration of cholesterol (STZ-diabetic rats [8]; [15]): more than 50%
reduction of increased concentration of triglycerides (STZ-diabetic rats [8]; [15]): more than 50%
MCP-1 protein expression (secreted, ELISA) (MCP-1 [9]): inhibited MCP-1 protein expression in a concentration-dependent manner
cell infiltration in the renal interstitium (kidneys of diabetic rats): prevented cell infiltration
mesangial expansion and basement membrane thickening of the kidneys (kidneys of diabetic rats): prevented mesangial expansion and basement membrane thickening
collagen deposition and tubular degeneration in the kidney glomeruli (Trichrome staining) (kidneys of diabetic rats; [16]): prevented collagen deposition and tubular degeneration
levels of PAS-positive materials in kidney glomeruli (kidneys of diabetic rats; [16]): reduced the levels of PAS-positive materials
S100b-induced COX-2 mRNA expression (COX-2): profoundly suppressed
